Test results reported in ChEMBL document CHEMBL4811314, “Synthesis, biochemical, and biological evaluation of C2 linkage derivatives of amino sugars, inhibitors of glucokinase from Trypanosoma cruzi” (Bioorg Med Chem Lett, 2021).

Experiments:
[1] = system: Saccharomyces cerevisiae; test: Inhibition of Saccharomyces cerevisiae G6PDH at 20 uM relative to control
[2] = Inhibition of Trypanosoma cruzi glucokinase
[3] = biological target: T1, Hexokinase-4 (Homo sapiens, UniProt P35557); test: Inhibition of human hexokinase-4 at 20 uM relative to control
T1 sequence (P35557 whole entry): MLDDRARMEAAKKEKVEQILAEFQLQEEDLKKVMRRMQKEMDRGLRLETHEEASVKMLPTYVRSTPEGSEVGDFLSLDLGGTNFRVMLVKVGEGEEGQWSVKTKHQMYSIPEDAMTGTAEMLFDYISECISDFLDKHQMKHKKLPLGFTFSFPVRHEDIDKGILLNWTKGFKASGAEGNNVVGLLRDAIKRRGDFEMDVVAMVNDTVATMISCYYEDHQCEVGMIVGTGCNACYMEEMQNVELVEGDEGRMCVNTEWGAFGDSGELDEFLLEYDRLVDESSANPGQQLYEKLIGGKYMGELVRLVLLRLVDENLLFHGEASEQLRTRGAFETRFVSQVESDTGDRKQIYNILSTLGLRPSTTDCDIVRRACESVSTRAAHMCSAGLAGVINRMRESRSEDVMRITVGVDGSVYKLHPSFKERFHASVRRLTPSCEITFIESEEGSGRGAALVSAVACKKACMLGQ

[4] = system: Trypanosoma cruzi; test: Antitrypanosomal activity against intracellular Trypanosoma cruzi Tulahuen […] infected in mouse NIH/3T3 cells assessed as parasite growth inhibition; type: functional, organism-based; settings: NIH3T3
[5] = Competitive inhibition of Trypanosoma cruzi glucokinase using D-glucose as substrate in presence of ATP by Lineweaver-Burk plot analysis
[6] = system: Trypanosoma cruzi; test: Competitive inhibition of Trypanosoma cruzi glucokinase assessed as Vmax using varying levels of D-glucose as substrate in presence of ATP by Lineweaver-Burk plot analysis
[7] = system: Trypanosoma cruzi; test: Competitive inhibition of Trypanosoma cruzi glucokinase assessed as Km using varying levels of D-glucose as substrate in presence of ATP by Lineweaver-Burk plot analysis
[8] = system: Trypanosoma cruzi; test: Antitrypanosomal activity against Trypanosoma cruzi Tulahuen amastigotes infected in mouse NIH/3T3 cells assessed as parasite growth inhibition incubated for 4 days in glucose rich DMEM medium; type: functional, organism-based; settings: NIH3T3, 96 h
[9] = Inhibition of His6-tagged Trypanosoma cruzi glucokinase using D-glucose and ATP as substrates

| SMILES | inhibition [1] [%] | Ki [2] [µM] | inhibition at 20 µM [3] [%] | IC50 [4] [µM] | Ki [5] [µM] | Vmax [6] | Km [7] [µM] | IC50 [8] [µM] | Ki [9] [µM] |
| --- | --- | --- | --- | --- | --- | --- | --- | --- | --- |
| O=C(N[C@H]1C(O)O[C@H](CO)[C@H](O)[C@@H]1O)c1ccccc1 (stereo partly specified) | 0 | > 500 | 37.8 | 55.3 | – | – | – | – | – |
| O=C(N[C@H]1C(O)O[C@H](CO)[C@H](O)[C@@H]1O)c1ccc(CCl)cc1 (stereo partly specified) | 0 | > 500 | 8.3 | 37.9 | – | – | – | – | – |
| O=C(N[C@@H]1C(O)O[C@H](CO)[C@@H](O)[C@@H]1O)c1ccoc1 (stereo partly specified) | 0 | > 500 | 31.6 | 67.5 | – | – | – | – | – |
| O=C(N[C@H]1C(O)O[C@H](CO)[C@@H](O)[C@@H]1O)c1ccoc1 (stereo partly specified) | 0 | 15.2 | 41.2 | 49.9 | 15.2 | 6.3 10^-5M/min | 840 | – | – |
| C[C@@H]1[C@H](O)[C@@H](C)/C=C/C=C/C=C/C=C/C=C/C=C/C=C/[C@H](O[C@@H]2O[C@H](C)[C@@H](O)[C@H](N)[C@@H]2O)C[C@@H]2O[C@](O)(C[C@@H](O)C[C@@H](O)[C@H](O)CC[C@@H](O)C[C@@H](O)CC(=O)O[C@H]1C)C[C@H](O)[C@H]2C(=O)O [AMPHOTERICIN B] | – | – | – | 1.85 | – | – | – | – | – |
| O=C(N[C@@H]1C(O)O[C@H](CO)[C@@H](O)[C@@H]1O)c1cc2ccccc2o1 (stereo partly specified) | 0 | > 500 | 12.4 | 42.5 | – | – | – | – | – |
| O=C(N[C@@H]1C(O)O[C@H](CO)[C@@H](O)[C@@H]1O)c1ccccc1 (stereo partly specified) | 0 | > 500 | 55.5 | 43.5 | – | – | – | – | – |
| O=C(Cn1ccnc1[N+](=O)[O-])NCc1ccccc1 [BENZNIDAZOLE] | – | – | – | – | – | – | – | 1.12 | – |
| O=C(N[C@H]1C(O)O[C@H](CO)[C@H](O)[C@@H]1O)c1cccc(Br)c1 (stereo partly specified) | 0 | > 500 | 29.8 | 19.9 | – | – | – | – | – |
| O=C(N[C@H]1C(O)O[C@H](CO)[C@@H](O)[C@@H]1O)c1ccccc1 (stereo partly specified) | 0.5 | – | 39.2 | – | – | – | – | 16.1 | 32 |
| O=C(N[C@H]1C(O)O[C@H](CO)[C@@H](O)[C@@H]1O)c1ccc(CCl)cc1 (stereo partly specified) | 0 | > 500 | 35.8 | 52.9 | – | – | – | – | – |
| Cc1ccc(C(=O)N[C@@H]2C(O)O[C@H](CO)[C@@H](O)[C@@H]2O)o1 (stereo partly specified) | 0 | 481 | 48.8 | > 80 | – | – | – | – | – |
| O=C(N[C@H]1C(O)O[C@H](CO)[C@H](O)[C@@H]1O)c1cc2ccccc2o1 (stereo partly specified) | 0 | > 500 | 36.5 | 66.6 | – | – | – | – | – |
| O=C(N[C@H]1C(O)O[C@H](CO)[C@@H](O)[C@@H]1O)c1cc2ccccc2o1 (stereo partly specified) | 0 | 107 | 25.2 | 27.2 | 107 | 8.1 10^-5M/min | 890 | – | – |
| O=C(N[C@H]1C(O)O[C@H](CO)[C@H](O)[C@@H]1O)c1ccoc1 (stereo partly specified) | 0 | > 500 | 47.2 | 36.4 | – | – | – | – | – |
| O=C(N[C@@H]1C(O)O[C@H](CO)[C@@H](O)[C@@H]1O)c1ccc(CCl)cc1 (stereo partly specified) | 0 | > 500 | 28.1 | 38.4 | – | – | – | – | – |
| O=C(N[C@H]1C(O)O[C@H](CO)[C@@H](O)[C@@H]1O)OCc1ccccc1 (stereo partly specified) | 0 | – | 2 | – | – | – | – | 48.7 | 0.71 |
| O=C(N[C@@H]1C(O)O[C@H](CO)[C@@H](O)[C@@H]1O)c1cccc(Br)c1 (stereo partly specified) | 0 | 320 | 27 | 38.4 | – | – | – | – | – |
| O=C(N[C@H]1C(O)O[C@H](CO)[C@@H](O)[C@@H]1O)c1cccc(Br)c1 (stereo partly specified) | 0 | 18 | 31.2 | 66.2 | – | – | – | – | – |
